In US9556130B2, “4-oxo-3,4-dihydro-1,2,3-benzotriazine modulators of GPR139” (Takeda Pharmaceutical Company Limited, priority 2014, dated 2017):

Key:
human GPR139 receptor [1] = biological target: T1, human GPR139 receptor (Homo sapiens (Human), UniProt Q6DWJ6); experiment: GPR139 Competition Binding; conditions: stably transfected CHO-TRex membranes, 1 nM 3H radioligand; read-out: GPR139 Inhibition (Ki (nM));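 also: receptor expression induced with doxycycline before membrane preparation, bound radioactivity counted by scintillation, Ki fitted with a four-parameter logistic model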
human GPR139 receptor [2] = biological target: T1, human GPR139 receptor; experiment: Activation of Calcium Signaling of GPR139 In Vitro Assay; format: cell-based; conditions: stably transfected CHO-TRex cells, Calcium 5 dye, FLIPR Tetra;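 also: receptor expression induced with doxycycline, calcium fluorescence read continuously for one minute after compound addition, EC50 taken from a four-parameter logistic fit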
[3] = test system: c-Fos immunoreactivity in the dorsal medial habenula; experiment: cFos Staining; format: in vivo, C57/B16 mice; conditions: oral
Procedure: Methods: After dosing C57/B16 mice for various time courses their brains were prepared for immunohistochemistry. […] Brains are extracted and placed in 4% paraformaldehyde for 3 hours, changed into 20% sucrose/PBS solution to avoid freezing artifacts, and frozen with dry ice. Frozen brain sections are obtained with sliding microtome at 20 um and washed in PBS (2 times for 10 minutes each). Endogenous peroxidase enzyme is blocked with 0.3% H2O2 solution in water for 10 minutes. Sections are rinsed in PBS (3 times for 10 minutes each) and incubated in primary antibody against cFos (Santa Cruz SC-42) at a dilution of 1:10,000 at 4° C. overnight in PBS+0.3% triton and 1% bovine serum albumin. Sections are subsequently rinsed in PBS (3 times for 10 minutes each) and incubated in secondary antibody: goat against rabbit-biotinylated antibody, at a dilution of 1:200 for 1 hour at room temperature in PBS+0.3% triton and 1% bovine serum albumin. Sections are rinsed in PBS (3 times for 10 minutes each) and incubated in ABC mix in PBS; ABC Elite Kit from Vector (PK-1000) for 1 hour at room temperature. Next, the sections are rinsed in PBS (3 times for 10 minutes each) and then in 0.1 M sodium acetate (3 times for 10 minutes each). Reaction is visualized with standard diaminobenzydine procedures: 50 mL of 0.1M sodium acetate containing 20 mg ammonium chloride, 20 mg, diaminobenzydine, 80 mg glucose and 10 mL of glucose oxidase. React for 10 minutes then the reaction is stopped with PBS rinses (3 times for 10 minutes each). cFos cells are then counted.

T1 sequence (Q6DWJ6 whole entry): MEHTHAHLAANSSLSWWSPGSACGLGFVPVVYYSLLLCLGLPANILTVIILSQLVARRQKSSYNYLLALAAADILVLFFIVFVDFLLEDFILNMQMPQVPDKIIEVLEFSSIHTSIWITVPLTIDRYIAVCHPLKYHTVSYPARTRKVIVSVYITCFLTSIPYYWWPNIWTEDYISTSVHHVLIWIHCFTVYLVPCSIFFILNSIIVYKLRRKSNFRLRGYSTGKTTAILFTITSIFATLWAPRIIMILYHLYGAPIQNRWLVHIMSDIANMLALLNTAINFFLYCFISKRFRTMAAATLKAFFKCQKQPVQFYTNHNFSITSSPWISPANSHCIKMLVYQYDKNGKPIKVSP

Row | Structure (SMILES) | Ki (human GPR139 receptor [1]) [nM] | EC50 (human GPR139 receptor [2]) [nM] | other results
1 | COc1ccc([C@H](C)NC(=O)Cn2nnc3cccc(C)c3c2=O)cc1 [Example 40, (S)—N-(1-(4-methoxyphenyl)ethyl)-2-(5-methyl-4-oxobenzo[d][1,2,3]triazin-3(4H)-yl)acetamide] | 533 | 9 | 
2 | COc1ccc([C@H](C)NC(=O)Cn2nnc3cc(C)ccc3c2=O)cc1 [Example 35, (S)—N-(1-(4-methoxyphenyl)ethyl)-2-(7-methyl-4-oxobenzo[d][1,2,3]triazin-3(4H)-yl)acetamide] | 1520 | 42 | 
3 | COc1ccc([C@H](C)NC(=O)Cn2nnc3cccc(F)c3c2=O)cc1 [Example 33, (S)-2-(5-fluoro-4-oxobenzo[d][1,2,3]triazin-3(4H)-yl)-N-(1-(4-methoxyphenyl)ethyl)acetamide] | 4850 | 41 | 
4 | COc1cccc2c(=O)n(CC(=O)N[C@@H](C)c3ccc(C(F)(F)F)cc3)nnc12 [Example 63, (S)-2-(8-methoxy-4-oxobenzo[d][1,2,3]triazin-3 (4H)-yl)-N-(1-(4-(trifluoromethyl)phenyl)ethyl)acetamide] | 352 | 50 | 
5 | COc1ccc([C@H](C)NC(=O)Cn2nnc3c(Cl)cc(Cl)cc3c2=O)cc1 [Example 27, (S)-2-(6,8-dichloro-4-oxobenzo[d][1,2,3]triazin-3(4H)-yl)-N-(1-(4-methoxyphenyl)ethyl)acetamide] | 190 | 7 | 
6 | C[C@H](NC(=O)Cn1nnc2ccc(F)cc2c1=O)c1ccc(C(F)(F)F)cc1 [Example 64, (S)-2-(6-fluoro-4-oxobenzo[d][1,2,3]triazin-3(4H)-yl)-N-(1-(4-(trifluoromethyl)phenyl)ethyl)acetamide] | 106 | 13 | 
7 | C[C@H](NC(=O)Cn1nnc2ccc(F)cc2c1=O)c1ccc(OC(F)(F)F)cc1 [Example 55, (S)-2-(6-fluoro-4-oxobenzo[d][1,2,3]triazin-3(4H)-yl)-N-(1-(4-(trifluoromethoxy)phenyl)ethyl)acetamide] | 42 | 38 | 
8 | Cc1ccc([C@H](C)NC(=O)Cn2nnc3cccc(F)c3c2=O)cc1 [Example 32, (S)-2-(5-fluoro-4-oxobenzo[d][1,2,3]triazin-3(4H)-yl)-N-(1-p-tolylethyl)acetamide] | 459 | 16 | 
9 | COc1ccc2nnn(CC(=O)N[C@@H](C)c3ccc(OC(F)(F)F)cc3)c(=O)c2c1 [Example 57, (S)-2-(6-methoxy-4-oxobenzo[d][1,2,3]triazin-3(4H)-yl)-N-(1-(4-(trifluoromethoxy)phenyl)ethyl)acetamide] | 128 | 43 | 
10 | Cc1ccc([C@H](C)NC(=O)Cn2nnc3c(Cl)cc(Cl)cc3c2=O)cc1 [Example 26, (S)-2-(6,8-dichloro-4-oxobenzo[d][1,2,3]triazin-3(4H)-yl)-N-(1-p-tolylethyl)acetamide] | 26 | 16 | 
11 | CC[C@H](NC(=O)Cn1nnc2ccccc2c1=O)c1ccc(OC(F)(F)F)cc1 [Example 86, (S)-2-(4-oxobenzo[d][1,2,3]triazin-3(4H)-yl)-N-(1-(4-(trifluoromethoxy)phenyl)propyl)acetamide] | 183 | 50 | 
12 | COc1ccc([C@H](C)NC(=O)Cn2nnc3c(C)cccc3c2=O)cc1 [Example 25, (S)—N-(1-(4-methoxyphenyl)ethyl)-2-(8-methyl-4-oxobenzo[d][1,2,3]triazin-3 (4H)-yl)acetamide] | 526 | 8 | 
13 | COc1ccc([C@H](C)NC(=O)Cn2nnc3c(F)cccc3c2=O)cc1 [Example 17, (S)-2-(8-fluoro-4-oxobenzo[d][1,2,3]triazin-3(4H)-yl)-N-(1-(4-methoxyphenyl)ethyl)acetamide] | 3600 | 27 | 
14 | Cc1ccc([C@H](C)NC(=O)Cn2nnc3cccc(C)c3c2=O)cc1 [Example 39, (S)-2-(5-methyl-4-oxobenzo[d][1,2,3]triazin-3 (4H)-yl)-N-(1-p-tolylethyl)acetamide] | 92 | 6 | 
15 | COc1ccc([C@H](C)NC(=O)Cn2nnc3c(Cl)cccc3c2=O)cc1 [Example 23, (S)-2-(8-chloro-4-oxobenzo[d][1,2,3]triazin-3(4H)-yl)-N-(1-(4-methoxyphenyl)ethyl)acetamide] | 842 | 13 | 
16 | Cc1ccc([C@H](C)NC(=O)Cn2nnc3c(F)cccc3c2=O)cc1 [Example 16, (S)-2-(8-fluoro-4-oxobenzo[d][1,2,3]triazin-3(4H)-yl)-N-(1-p-tolylethyl)acetamide] | 708 | 9 | 
17 | Cc1ccc([C@H](C)NC(=O)Cn2nnc3c(C)cc(C)cc3c2=O)cc1 [Example 41, (S)-2-(6,8-dimethyl-4-oxobenzo[d][1,2,3]triazin-3(4H)-yl)-N-(1-p-tolylethyl)acetamide] | 10 | 7 | 
18 | COc1cccc2nnn(CC(=O)N[C@@H](C)c3ccc(C)cc3)c(=O)c12 [Example 3, (S)-2-(5-methoxy-4-oxobenzo[d][1,2,3]triazin-3(4H)-yl)-N-(1-p-tolylethyl)acetamide] |  |  | cFos cell count, Mean ([3]; dose-response and time course experiment, 0.03 mg/kg 1 hr): 1628; cFos cell count, Mean ([3]; dose-response and time course experiment, 0.1 mg/kg 1 hr): 2243; cFos cell count, Mean ([3]; dose-response and time course experiment, 0.3 mg/kg 1 hr): 2458; cFos cell count, Mean ([3]; dose-response and time course experiment, 0.3 mg/kg 2 hr): 2777; cFos cell count, Mean ([3]; dose-response and time course experiment, 0.3 mg/kg 4 hr): 865; cFos cell count, Mean ([3]; dose-response and time course experiment, 3 mg/kg 1 hr): 2023
19 | C[C@H](NC(=O)Cn1nnc2ccccc2c1=O)c1ccc(OC(F)(F)F)cc1 [Example 2, (S)-2-(4-oxobenzo[d][1,2,3]triazin-3(4H)-yl)-N-(1-(4-(trifluoromethoxy)phenyl)ethyl)acetamide] |  |  | cFos cell count, Mean ([3]; desensitization experiment, 0.1 mg/kg 1d): 1486; cFos cell count, Mean ([3]; desensitization experiment, 0.1 mg/kg 5d): 1928; cFos cell count, Mean ([3]; desensitization experiment, 0.1 mg/kg 10d): 1684; cFos cell count, Mean ([3]; dose response curve experiment, 0.01 mg/kg): 1376; cFos cell count, Mean ([3]; dose response curve experiment, 0.03 mg/kg): 986.3; cFos cell count, Mean ([3]; dose response curve experiment, 0.1 mg/kg): 1381; cFos cell count, Mean ([3]; dose response curve experiment, 0.3 mg/kg): 1408; cFos cell count, Mean ([3]; dose response curve experiment, 1 mg/kg): 1368; cFos cell count, Mean ([3]; time course experiment, 0.1 mg/kg 1 hr): 787.7; cFos cell count, Mean ([3]; time course experiment, 0.3 mg/kg 1 hr): 1343; cFos cell count, Mean ([3]; time course experiment, 0.3 mg/kg 2 hr): 1400; cFos cell count, Mean ([3]; time course experiment, 0.3 mg/kg 4 hr): 2170; cFos cell count, Mean ([3]; time course experiment, 3 mg/kg 1 hr): 2365
20 | COc1ccc([C@H](C)NC(=O)Cn2nnc3c(C)cc(C)cc3c2=O)cc1 [Example 42, (S)-2-(6,8-dimethyl-4-oxobenzo[d][1,2,3]triazin-3(4H)-yl)-N-(1-(4-methoxyphenyl)ethyl)acetamide] | 179 | 37 | 
21 | C[C@H](NC(=O)Cn1nnc2ccc(F)cc2c1=O)c1ccc(OC(F)F)cc1 [Example 68, (S)—N-(1-(4-(difluoromethoxy)phenyl)ethyl)-2-(6-fluoro-4-oxobenzo[d][1,2,3]triazin-3(4H)-yl)acetamide] | 282 | 10 | 
22 | COc1ccc2nnn(CC(=O)N[C@@H](C)c3ccc(C(F)(F)F)cc3)c(=O)c2c1 [Example 60, (S)-2-(6-methoxy-4-oxobenzo[d][1,2,3]triazin-3(4H)-yl)-N-(1-(4-(trifluoromethyl)phenyl)ethyl)acetamide] | 115 | 18 | 
23 | Cc1ccc([C@H](C)NC(=O)Cn2nnc3ccc(F)cc3c2=O)c(C)c1 [Example 52, (S)—N-(1-(2,4-dimethylphenyl)ethyl)-2-(6-fluoro-4-oxobenzo[d][1,2,3]triazin-3(4H)-yl)acetamide] | 39 | 24 | 
24 | Cc1ccc([C@H](C)NC(=O)Cn2nnc3cc(C)ccc3c2=O)cc1 [Example 34, (S)-2-(7-methyl-4-oxobenzo[d][1,2,3]triazin-3(4H)-yl)-N-(1-p-tolylethyl)acetamide] | 347 | 7 | 
25 | COc1ccc2c(=O)n(CC(=O)N[C@@H](C)c3ccc(OC(F)(F)F)cc3)nnc2c1 [Example 56, (S)-2-(7-methoxy-4-oxobenzo[d][1,2,3]triazin-3(4H)-yl)-N-(1-(4-(trifluoromethoxy)phenyl)ethyl)acetamide] | 218 | 37 | 
